From PMC7756445, “A Novel Prodrug of a nNOS Inhibitor with Improved Pharmacokinetic Potential” (Chemmedchem, 2020)

Tests used:
[1] = Chemical stability in nonenzymatic simulated gastric and intestinal fluids; assay type: physicochemical; conditions: 2 h
Description: The effects of gastrointestinal digestion are important parameters to be taken into consideration in the determination of bioavailability and bioactivity of new compounds. In particular, the luminal instability, due to the pH or enzymatic degradation, may compromise the transmucosal transport of the prodrug designed for permeability enhancement. Therefore, in this study the chemical stability of compound 2 was assessed to exclude any undesirable degradation at acid and physiological environments. Hydrochloric acid buffer (pH 2.0) as a nonenzymatic simulated gastric fluid (SGF), and phosphate buffer (pH 7.4) as nonenzymatic simulated intestinal fluid (SIF) were employed to evaluate the chemical stability. […] For chemical stability, a 0.01 M hydrochloric acid buffer (pH 1.3) and 0.01 M phosphate buffer (pH 7.4) were used. To assess enzymatic stability, the same hydrochloric buffer with and without pepsin (10 or 40 mg/mL) and phosphate buffer with and without pancreatin (10 or 40 mg/mL) were used. […] The mixture was vortexed and centrifuged at 2 °C and 10 000 rpm, Swing‐out Rotor, for 10 min, and the content of tested compound in the supernatant was analyzed by HPLC. Experiments were run in triplicate and the mean values of the rate constants were calculated.

[2] = PAMPA-GI assay; design: Papp at 2 h: dose or concentration left out as unconfirmed; conditions: for Papp at 2 h: PAMPA
Description: The relative passive transcellular diffusion of compounds, expressed as permeability coefficient (Pe), was determined with a permeability equation. ^[45] The permeabilities of 1, 2, and 1400 W were determined at pH 5.0, 6.5, and 7.4 to mimic the physiological conditions of the GI tract (Table 1). […] As the new prodrug was designed for the potential treatment of neurodegenerative diseases, an important parameter is its capability to cross the BBB.
Each donor filtration plate well, carefully impregnated with 5 µL of this solution, was added of 150 μL of […] test compound buffer solutions (phosphate buffer for pH 7.4 and pH 6.5 and hydrochloric acid buffer for pH 1.4). Subsequently, the drug‐filled donor plate was placed onto the acceptor plate prefilled with the same buffer (300 μL) as the acceptor solution. Once replaced the plate lid, the resulting assembled donor‐acceptor plates were incubated at room temperature for 2 h. The concentration in the acceptor and donor solutions were determined by HPLC. The Pe was determined as previously reported. ^[47]

C/C(=N\O)NC(c1ccccc1)c1ccccc1 [Compound 2, (1E)‐N‐(diphenylmethyl)‐N′‐hydroxyethanimidamide]
chemical stability in nonenzymatic simulated gastric fluid (SGF) ([1]; hydrochloric acid buffer pH 2.0 (method: pH 1.3), 37 °C): stable | chemical stability in nonenzymatic simulated intestinal fluid (SIF) ([1]; phosphate buffer pH 7.4, 37 °C): stable | Papp at 2 h ([2]; pH 1.4): 0.66 ×10⁻⁶ cm/s | Papp at 2 h ([2]; pH 6.5): 1.57 ×10⁻⁶ cm/s | Papp at 2 h ([2]; pH 7.4): 2.03 ×10⁻⁶ cm/s | PAMPA-GI Pe (bound stated in text) ([2]; pH 6.5): > 1.5×10^−6 | PAMPA-GI Pe (bound stated in text) ([2]; pH 7.4): > 1.5×10^−6
